Test results published in patent publication US9999611B2, “SIRT 1 activator including syringaresinol” (AMOREPACIFIC CORPORATION, priority 2011, dated 2018).

Key:
SIRT1 [1] = assay: SIRT1 expression recovering effect in gingival fibroblasts treated with cigarette smoke condensate (PCR); format: cell-based, human; settings: cigarette smoke condensate 100 μg/mL, syringaresinol 50 or 100 μg/mL, 2 days, FIG. 2
Protocol: Experiment was conducted to evaluate whether syringaresinol can recover SIRT1 expression that has been decreased due to smoking in gingival fibroblasts.
Gingival fibroblasts were obtained from tissue biopsies of patients having healthy gingiva. The tissue biopsy was put in a 15-mL test tube holding Dulbecco's modified Eagle's medium (DMEM, Gibco Co., USA) and blood and impurities were removed by washing 3 times. Then, the tissue biopsy was transferred onto a 100-mm tissue culture dish holding DMEM containing 10% fetal bovine serum (Gibco Co., USA) and 1% antibiotics (penicillin G 10,000 units/mL, amphotericin B 25 μg/mL, Gibco Co., USA) and finely cut to 1 mm^2 using a No. 15 blade. Then, 5-6 pieces were uniformly distributed on a 60-mm culture dish. After incubation for about 30 minutes in a 5% CO2 incubator at 37° C. and 100% humidity such that the tissue was uniformly attached on the bottom of the culture dish, 3 mL of DMEM containing 10% fetal bovine serum and 1% antibiotics was added. The culture medium was exchanged with 2-3 day intervals until a single layer of cells was formed. […]
The gingival fibroblasts subcultured 5-6 times were seeded onto a 24-well plate, with 1×10^4 cells per well. […] The expression pattern of the SIRT1 and GAPDH genes was monitored using the synthesized cDNA and predesigned primers and probes (Applied Biosystems; SIRT1, Hs01009006_m1; GAPDH, Hs99999905_m1). […]

PGC-1α = PGC-1α mRNA expression promoting effect (qRT-PCR); format: cell-based, human; settings: 50 μM, vs DMSO control, FIG. 12
Protocol: (§1) Human adipocytes, hepatocytes and myocytes were treated with 50 μM syringaresinol in substantially the same manner as in Test Example 3 and washed with PBS. Then, RNA and cDNA were sequentially extracted therefrom. The mRNA expression of the energy metabolism-related genes PGC-1α and PGC-1β was analyzed by qRT-PCR. A result of comparing the expression of PGC-1α and PGC-1β with a control group treated only with DMSO is shown in FIG. 12 and FIG. 13, respectively.

PGC-1β = PGC-1β mRNA expression promoting effect (qRT-PCR); format: cell-based, human; settings: 50 μM, vs DMSO control, FIG. 13
Protocol: as §1

[2] = tested on: aged retinal cells (ARPE-19); assay: Mitochondrial function recovering effect in aged retinal cells: reactive oxygen species production (H2DCFDA, flow cytometer); format: cell-based, human; settings: compared to cells treated only with DMSO, FIG. 16
Protocol: The aging of retinal cells was induced while treating with 50 or 100 μM syringaresinol or with DMSO as a negative control, in substantially the same manner as in Test Example 7. For evaluation of mitochondrial function recovering effect, the level of energy (ATP) and reactive oxygen species production in retinal cells was investigated. The energy production was determined by recovering the aged cells after washing with PBS and then with hot water and measuring luminescence using the ATP determination kit (Molecular Probes, Eugene, Oreg., USA) and the Tecan system (Infinite M200, Tecan, Austria). The reactive oxygen species production was measured using a flow cytometer (BD Biosciences, San Jose, Calif., USA) after washing the aged cells with PBS and staining them with the reactive oxygen species detection reagent (H2DCFDA, Invitrogen, Carlsbad, Calif., USA).

SIRT1 [3] = assay: SIRT1 expression promoting effect in human PBMCs (qRT-PCR); format: cell-based; settings: human PBMCs, 20, 50 or 100 μM, 24 hours; FIG. 17
Protocol: The SIRT1 gene expression promoting effect of syringaresinol in human PBMCs was evaluated as follows.
Human PBMCs were purchased from Zen-Bio (Research Triangle Park, N.C., USA) and cultured in a 5% CO2 incubator using a PBMC medium (Zen-Bio) until 80% confluency. Then, the cells were treated for 24 hours with syringaresinol dissolved in DMSO to a concentration of 20, 50 or 100 μM. A negative control group was treated with DMSO corresponding to 1/1000 of the volume of the culture medium. The cells treated with each sample were washed with PBS and RNA was extracted therefrom using the TRIzol reagent (Invitrogen). Then, cDNA was synthesized from the extracted RNA (5 μg) using a reverse transcription system (Fermentas, Glen Burnie, Md., USA). The expression pattern of the SIRT1 and GAPDH genes was monitored by qRT-PCR using the synthesized cDNA and predesigned primers and probes. qRT-PCR reaction and analysis were carried out using the Rotor-Gene 3000 system (Corbett Research, Sydney, Australia).

[4] = tested on: PGC-1α and PGC-1β, IL-10 and arginase I; assay: Change in human PBMC type: expression of type 2 immune cell-related genes; format: cell-based; settings: human PBMCs, 20, 50 or 100 μM, vs DMSO; FIG. 21
Protocol: After treating human PBMCs with 20, 50 or 100 μM syringaresinol or DMSO in substantially the same manner as in Test Example 11, RNA was extracted from the PBMCs and cDNA was synthesized therefrom in order to measure the expression of type 2 immune cell-related genes. The expression pattern of the transcriptional regulators necessary for inducement of differentiation to type 2 immune cells, such as PGC-1α and PGC-1β, and the genes mainly expressed in type 2 immune cells, such as IL-10 and arginase I, was measured using the synthesized cDNA.

SMILES: COc1cc(C2OCC3C(c4cc(OC)c(O)c(OC)c4)OCC23)cc(OC)c1O (centres unmarked) [syringaresinol]
- SIRT1 expression (SIRT1 [1]): increased SIRT1 expression in gingival fibroblasts, which had been decreased due to smoking, in a concentration-dependent manner
- expression of PGC-1α (PGC-1α; human adipocytes): increased the expression
- expression of PGC-1α (PGC-1α; human hepatocytes): increased the expression
- expression of PGC-1α (PGC-1α; human myocytes): increased the expression
- expression of PGC-1β (PGC-1β; human adipocytes): increased the expression
- expression of PGC-1β (PGC-1β; human hepatocytes): increased the expression
- expression of PGC-1β (PGC-1β; human myocytes): increased the expression
- decreased reactive oxygen species production ([2]; 50 μM): about 7%
- decreased reactive oxygen species production ([2]; 100 μM): ~11%
- SIRT1 expression (SIRT1 [3]): increased SIRT1 expression in PBMCs in a concentration-dependent manner
- expression of type 2 immune cell-specific marker genes [4]: significantly increased expression
